# Molecular target: T1, Peroxisome proliferator-activated receptor gamma (Homo sapiens, UniProt P37231)
# T1 sequence (P37231 whole entry): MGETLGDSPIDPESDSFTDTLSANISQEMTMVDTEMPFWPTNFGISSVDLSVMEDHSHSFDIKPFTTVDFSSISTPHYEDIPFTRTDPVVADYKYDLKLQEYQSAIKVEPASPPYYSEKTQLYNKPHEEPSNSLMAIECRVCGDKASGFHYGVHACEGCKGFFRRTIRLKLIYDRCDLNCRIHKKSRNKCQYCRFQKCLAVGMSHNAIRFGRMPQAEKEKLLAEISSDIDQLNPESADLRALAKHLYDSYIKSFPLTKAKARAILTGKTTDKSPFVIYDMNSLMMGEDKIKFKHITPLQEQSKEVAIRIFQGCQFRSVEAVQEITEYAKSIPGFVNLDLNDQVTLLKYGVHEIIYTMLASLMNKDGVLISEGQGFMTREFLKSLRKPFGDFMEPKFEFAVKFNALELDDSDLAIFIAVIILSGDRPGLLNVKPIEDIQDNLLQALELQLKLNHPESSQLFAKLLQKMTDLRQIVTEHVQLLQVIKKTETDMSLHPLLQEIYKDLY
# Assay: Binding affinity to GST-tagged human PPAR-gamma receptor by FRET assay; call rule not given here
SMILES,IC50,IC50 (read-out: IC50) [µM]
O=C1NC(=O)C(=Cc2ccc(N(CCOCc3ccccc3)CCOC(c3ccccc3)(c3ccccc3)c3ccccc3)cc2)C(=O)N1,Not Active,
O=C1NC(=O)C(=Cc2ccc(N(CCO)CCOC(c3ccccc3)(c3ccccc3)c3ccccc3)cc2)C(=O)N1,,22.2
O=C1NC(=O)C(=Cc2ccc(N(CCOc3ccccn3)CCOc3ccccn3)cc2)C(=O)N1,Not Active,
COc1ccc(COCCN(CCOCc2ccccc2)c2ccc(C=C3C(=O)NC(=O)NC3=O)cc2)cc1,,191
N#Cc1ccc(OCCN(CCOc2ccc(C#N)cc2)c2ccc(C=C3C(=O)NC(=O)NC3=O)cc2)cc1,,6.5
O=C1NC(=O)C(=Cc2ccc(N(CCOc3ccc([N+](=O)[O-])cc3)CCOc3ccc([N+](=O)[O-])cc3)cc2)C(=O)N1,,10.1
COc1ccc(COCCN(CCOCc2ccc(OC)cc2)c2ccc(C=C3C(=O)NC(=O)NC3=O)cc2)cc1,,59.1
CC(=O)OCCN(CCOC(C)=O)c1ccc(C=C2C(=O)NC(=O)NC2=O)cc1,Not Active,
COc1ccc(COCCN(CCOc2ccccn2)c2ccc(C=C3C(=O)NC(=O)NC3=O)cc2)cc1,,84
COc1ccc(COCCN(CCOCc2ccc(Br)cc2)c2ccc(C=C3C(=O)NC(=O)NC3=O)cc2)cc1,Not Active,
COc1ccc(COCCN(CCOC(C)=O)c2ccc(C=C3C(=O)NC(=O)NC3=O)cc2)cc1,Not Active,
O=C1NC(=O)C(=Cc2ccc(N(CCOCc3ccc(F)cc3)CCOCc3ccc(F)cc3)cc2)C(=O)N1,Not Active,
CC(=O)OCCN(CCOCc1ccccc1)c1ccc(C=C2C(=O)NC(=O)NC2=O)cc1,,> 200
O=C1NC(=O)C(=Cc2ccc(N(CCOCc3ccccc3)CCOCc3ccccc3)cc2)C(=O)N1,,78.4
O=C1NC(=O)C(=Cc2ccc(OCc3ccccc3)cc2)C(=O)N1,,0.1

# — ChEMBL document CHEMBL3751711, “Design and synthesis of novel Y-shaped barbituric acid derivatives as PPARγ activators” (Eur J Med Chem, 2016)
